Key:
[1] = substance on its own versus ANP employed as accelerant; cited from earlier work
[2] = T2 relaxation times of destructuring and structuring agents in water; assay type: physicochemical; settings: solute in water, concentration 0.5 mol/l

Compound | permeation through the skin relative to ANP [1] | T2 relaxation time [2]
O=[N+]([O-])O[C@H]1CO[C@H]2[C@@H]1OC[C@H]2O[N+](=O)[O-] [ISDN, isosorbide dinitrate] | 10 factor | –
OC[C@H]1O[C@@](CO)(O[C@H]2O[C@H](CO)[C@@H](O)[C@H](O)[C@H]2O)[C@@H](O)[C@@H]1O [Sucrose] | – | 18.7 ms
NC(N)=O [Urea] | – | 145 ms

Reference: patent US20010018073A1, “Transdermal compositions with enhanced skin penetration properties” (JENAPHARM GMBH & CO., KG, priority 1997, published 2001)
